In ChEMBL document CHEMBL1201862, “PubChem BioAssay data set” (2004):
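Protocol summary: plate cells (96-well), add compound at 5 concentrations, incubate 48 h, interpolate endpoints linearly. GI50 is the concentration that inhibits growth by half.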 Active and inactive are the calls of the source. Cut-off read from the data, not from the text of the source: active = GI50 up to about 1.1 µM and inactive = higher.

How the values were obtained:
Assay in all cases: NCI tumour cell line growth inhibition, 48 h
[1] = tested on: BT-549
[2] = tested on: UACC-257
[3] = tested on: MCF7
[4] = tested on: NCI/ADR-RES
[5] = tested on: UO-31
[6] = tested on: A549
[7] = tested on: CCRF-CEM
[8] = tested on: COLO 205
[9] = tested on: HCT-15
[10] = tested on: OVCAR-8
[11] = tested on: HCC 2998
[12] = tested on: HOP-92
[13] = tested on: RPMI-8226
[14] = tested on: CAKI-1
[15] = tested on: SF-539
[16] = tested on: NCI-H23
[17] = tested on: SNB-19
[18] = tested on: SR
[19] = tested on: HOP-62
[20] = tested on: LOX IMVI

SMILES	GI50 [1]	GI50 [2]	GI50 [3]	GI50 [4]	GI50 [5]	GI50 [6]	GI50 [7]	GI50 [8]	GI50 [9] [µM]	GI50 [10]	GI50 [11]	GI50 [12]	GI50 [13]	GI50 [14]	GI50 [15]	GI50 [16]	GI50 [17]	GI50 [18]	GI50 [19]	GI50 [20]
CCCOc1cc2c(cc1O)CC[C@@H]1[C@@H]2CC[C@]2(C)[C@@H](O)CC[C@@H]12	0.524 µM (active)	5.04 µM (inactive)	2.18 µM (inactive)	1.17 µM (inactive)	4.95 µM (inactive)	2.99 µM (inactive)	1.56 µM (inactive)	12 µM (inactive)	0.687	4.98 µM (inactive)	4.56 µM (inactive)	10.3 µM (inactive)	1.83 µM (inactive)	2.81 µM (inactive)	1.48 µM (inactive)	3.37 µM (inactive)	6.71 µM (inactive)	0.209 µM (active)	2.21 µM (inactive)	2.74 µM (inactive)
COC(=O)c1c(C)ccc2c(O)c3c(cc12)C(=O)c1c2c(cc(O)c1C3=O)C1(C)OC(C)(O2)C(O)C(N(C)C)C1O (stereo not given)	3.61 µM (inactive)	1.65 µM (inactive)	1.28 µM (inactive)	2.79 µM (inactive)	1.87 µM (inactive)	1.28 µM (inactive)	0.283 µM (active)	1.82 µM (inactive)	1.46	0.83 µM (active)	0.532 µM (active)	1.82 µM (inactive)	0.946 µM (active)	1.91 µM (inactive)	2.21 µM (inactive)	1.56 µM (inactive)	1.35 µM (inactive)	0.294 µM (active)	1.74 µM (inactive)	1.24 µM (inactive)
Cn1cco/c1=N/c1ccc(Cl)c(Cl)c1	> 10 µM (inactive)	> 10 µM (inactive)	> 10 µM (inactive)	> 10 µM (inactive)	> 10 µM (inactive)	> 10 µM (inactive)	> 10 µM (inactive)	> 10 µM (inactive)	> 10	> 10 µM (inactive)	> 10 µM (inactive)	> 10 µM (inactive)	> 10 µM (inactive)	> 10 µM (inactive)	> 10 µM (inactive)	> 10 µM (inactive)	> 10 µM (inactive)	> 10 µM (inactive)	> 10 µM (inactive)	> 10 µM (inactive)
c1cncc(CNc2ncn[nH]2)c1	> 100 µM (inactive)	> 100 µM (inactive)	> 100 µM (inactive)	> 100 µM (inactive)	> 100 µM (inactive)	> 100 µM (inactive)		> 100 µM (inactive)	> 100	> 100 µM (inactive)		> 100 µM (inactive)	> 100 µM (inactive)	> 100 µM (inactive)	> 100 µM (inactive)	> 100 µM (inactive)	> 100 µM (inactive)	> 100 µM (inactive)	> 100 µM (inactive)	> 100 µM (inactive)
COc1ccc2c(c1O)C13CCN(C)C(C2)C1CCC1(C3)OCCO1 (stereo not given)	> 100 µM (inactive)	> 100 µM (inactive)	> 100 µM (inactive)	> 100 µM (inactive)	> 100 µM (inactive)	> 100 µM (inactive)		> 100 µM (inactive)	> 100	> 100 µM (inactive)	> 100 µM (inactive)	> 100 µM (inactive)	> 100 µM (inactive)	> 100 µM (inactive)		> 100 µM (inactive)	> 100 µM (inactive)	> 100 µM (inactive)	> 100 µM (inactive)	> 100 µM (inactive)
Cn1c2ccccc2c2c(-c3ccccc3)cc3c(c21)C(=O)C=CC3=O	1.6 µM (inactive)	2.11 µM (inactive)	1.72 µM (inactive)	3.33 µM (inactive)	1.61 µM (inactive)	> 10 µM (inactive)	0.228 µM (active)	0.632 µM (active)	1.85	2.07 µM (inactive)	> 4.88 µM (inactive)	1.96 µM (inactive)	1.15 µM (inactive)	1.91 µM (inactive)	1.92 µM (inactive)	1.94 µM (inactive)	4.05 µM (inactive)	0.195 µM (active)	> 7.4 µM (inactive)	3.26 µM (inactive)
O=c1c(Cc2ccc(Cl)cc2)nnc2sc(-c3ccc([N+](=O)[O-])cc3)nn12	19.8 µM (inactive)	17.1 µM (inactive)	19.6 µM (inactive)	32.1 µM (inactive)	21.3 µM (inactive)	24.3 µM (inactive)	23.2 µM (inactive)		14.6	35 µM (inactive)	17.9 µM (inactive)	48.1 µM (inactive)	21.3 µM (inactive)	31.1 µM (inactive)		20.7 µM (inactive)	> 100 µM (inactive)	22.1 µM (inactive)	49.1 µM (inactive)	29.2 µM (inactive)
O=C(c1ccccc1)C1C(C(=O)c2ccccc2)C(c2ccccc2)N(c2ccccc2)C1c1ccccc1 (stereo not given)	> 100 µM (inactive)	> 100 µM (inactive)	> 100 µM (inactive)	> 100 µM (inactive)	> 100 µM (inactive)	> 100 µM (inactive)	> 100 µM (inactive)	> 100 µM (inactive)	> 100	> 100 µM (inactive)	> 100 µM (inactive)	> 100 µM (inactive)	21.2 µM (inactive)	> 100 µM (inactive)	> 100 µM (inactive)	> 100 µM (inactive)	> 100 µM (inactive)	> 100 µM (inactive)	> 100 µM (inactive)	> 100 µM (inactive)
COc1cc(C2SC(=N)Nc3c2c(C)nn3C(=O)c2ccccc2O)cc(OC)c1OC (stereo not given)	> 10 µM (inactive)	> 10 µM (inactive)	> 10 µM (inactive)	4.38 µM (inactive)	6.18 µM (inactive)	4.24 µM (inactive)	3.85 µM (inactive)	> 10 µM (inactive)	4.31	> 10 µM (inactive)		3.12 µM (inactive)	> 10 µM (inactive)	6.05 µM (inactive)	4.42 µM (inactive)	8.3 µM (inactive)	8.71 µM (inactive)	9.35 µM (inactive)	6.15 µM (inactive)	5.16 µM (inactive)
Nc1nc(Nc2ccc(Cl)cc2)sc1C(=O)c1c[nH]c2ccccc12	16.9 µM (inactive)	7.26 µM (inactive)	13.8 µM (inactive)	12.4 µM (inactive)	15.4 µM (inactive)	13.6 µM (inactive)	15 µM (inactive)	3.8 µM (inactive)	3.87		11.3 µM (inactive)	20 µM (inactive)	11.6 µM (inactive)		15.8 µM (inactive)	13.4 µM (inactive)	14.3 µM (inactive)	5.74 µM (inactive)	21 µM (inactive)	18.2 µM (inactive)
c1ccc2c(c1)CC1=C(O2)c2ccccc2OC1	25.1 µM (inactive)	28.2 µM (inactive)	> 100 µM (inactive)	36.6 µM (inactive)	41.2 µM (inactive)	47.3 µM (inactive)	32.7 µM (inactive)	18.9 µM (inactive)	25.8	35.7 µM (inactive)	21.8 µM (inactive)	21.2 µM (inactive)	21.8 µM (inactive)	23.1 µM (inactive)	26.3 µM (inactive)	40.9 µM (inactive)		20.4 µM (inactive)	74.5 µM (inactive)	17.9 µM (inactive)
COc1cccc(-c2cc(O)c3c(C)cc(C)nc3n2)c1	12.3 µM (inactive)		0.442 µM (active)	1.13 µM (inactive)	0.867 µM (active)	0.78 µM (active)	0.431 µM (active)	0.21 µM (active)	0.399	0.944 µM (active)	0.682 µM (active)	2.74 µM (inactive)	0.345 µM (active)		0.455 µM (active)	0.746 µM (active)	0.714 µM (active)	0.136 µM (active)	1.09 µM (active)	0.703 µM (active)
COc1ccc(-c2[nH]c3c4c(nc5c(c24)C(=O)CC(C)(C)C5)CC(C)(C)C3)cc1	43.9 µM (inactive)	68.5 µM (inactive)	58.3 µM (inactive)	48.8 µM (inactive)	61.1 µM (inactive)	62.4 µM (inactive)	11.4 µM (inactive)	63.8 µM (inactive)	54.2	52.6 µM (inactive)	55.6 µM (inactive)	39.6 µM (inactive)		70.5 µM (inactive)	67.6 µM (inactive)	76.2 µM (inactive)	> 100 µM (inactive)	13.2 µM (inactive)	> 100 µM (inactive)	68.7 µM (inactive)
c1ccc2sc(C3(N4CCCC4)CCCCCC3)cc2c1	21.4 µM (inactive)	16 µM (inactive)	18.4 µM (inactive)	19.7 µM (inactive)	12.8 µM (inactive)	19.6 µM (inactive)	10.7 µM (inactive)	14 µM (inactive)	17.5	17.9 µM (inactive)	13.6 µM (inactive)	12.6 µM (inactive)		20.9 µM (inactive)	19.6 µM (inactive)	18 µM (inactive)	14 µM (inactive)	18.8 µM (inactive)	18.5 µM (inactive)	14.7 µM (inactive)
O=c1n(/N=C/c2ccccc2)c(=O)n2n1C1C=CC2CC1	> 100 µM (inactive)	> 100 µM (inactive)	> 100 µM (inactive)	> 100 µM (inactive)	> 100 µM (inactive)	> 100 µM (inactive)	> 100 µM (inactive)	> 100 µM (inactive)	> 100	> 100 µM (inactive)		> 100 µM (inactive)	> 100 µM (inactive)	> 100 µM (inactive)	> 100 µM (inactive)	> 100 µM (inactive)	> 100 µM (inactive)	> 100 µM (inactive)	> 100 µM (inactive)	> 100 µM (inactive)
